Laboratory results taken from PMC11923649, “Novel C-2 Aromatic Heterocycle-Substituted Triterpenoids Inhibit Hedgehog Signaling in GLI1 Overexpression Cancer Cells” (ACS Omega, 2025).

What was measured:
[1] = test system: A549 (lung adenocarcinoma); experiment: MTS cytotoxicity assay, 72 h, A549; type: cell-based; details: Homo sapiens, A549, 72 h
Protocol: (§1) Based on the preliminary results and tests of a larger library of known triterpenoids, a small set of 2-substituted lupane and 18α-oleanane derivatives was designed and synthesized. As the first step, the cytotoxic activity of the synthesized derivatives was assessed using an MTS assay following 72 h of treatment (Table 1). Selected cell lines A549 (lung adenocarcinoma) and DU-145 (prostate cancer) are both dependent on Hh signaling. In addition, K562 (chronic myelogenous leukemia) was included as a cell line sensitive to Hh inhibitors[32] and a type of hematological malignancy with active Hh signaling.[33] MRC-5 lung fibroblasts and BJ human skin fibroblasts cell lines were used to evaluate the toxicity against nontumor cells. Compounds were also tested using the standard panel of other cancer cell lines, as described in our earlier work (Table 1).[27]
(§2) The human prostate tumor-derived cell line DU145 was obtained from ATCC (American Type Culture Collection) and cultured in RPMI 1640 (Roswell Park Memorial Institute) medium supplemented with 10% (v/v) fetal bovine serum (FBS). Human prostate tumor-derived LNCaP cells were obtained from ATCC and cultured in RPMI 1640 medium supplemented with 10% FBS. The human nonsmall cell lung carcinoma (NSCLC)-derived cell line HOP-62 was obtained from the DSMZ (German Collection of Microorganisms and Cell Cultures) and cultured in RPMI 1640 medium supplemented with 10% FBS. The human nonsmall cell lung carcinoma-derived cell line NCI-H322 was obtained from ECACC (European Collection of Authenticated Cell Cultures) and cultured in RPMI 1640 medium supplemented with 10% FBS. The human nonsmall cell lung carcinoma-derived cell line NCI-H522 was obtained from ATCC and cultured in RPMI 1640 medium supplemented with 10% FBS. The human lung tumor-derived cell line A549 was obtained from ATCC and cultured in Dulbecco’s Modified Eagle’s Medium (DMEM) supplemented with 10% FBS. The human medulloblastoma-derived cell line DAOY was obtained from ATCC and cultured in Eagle’s Minimum Essential Medium (EMEM) supplemented with 10% FBS. The human glioblastoma-derived cell line T98G was obtained from ATCC and cultured in EMEM medium supplemented with 10% FBS, 1 mmol/L sodium pyruvate, and 1 mmol/L nonessential amino acid mixture. All the above-mentioned cell lines were cultured at 37 °C in an atmosphere of 5% CO2 with 95% humidity. The cytotoxicity MTS assays were performed using MTS (3-(4,5-dimethylthiazol-2-yl)-5-(3-carboxymethoxyphenyl)-2-(4-sulfophenyl)-2H-tetrazolium) tetrazolium salt. Briefly, cells were seeded in a 384-well transparent plate in a volume of 25 μL and a concentration of 15,000 cells/mL (DU145, LNCaP, HOP-62, A549, DAOY, T98G) or 30,000 cells/mL (NCI-H322, NCI-H522). The next day, cells were exposed to compounds in a concentration range of 50–0.0975 μmol/L (dilution factor 2) and cultured in the presence of the compounds for 72 h. After 72 h, 5 μL of MTS/phenazine methosulfate solution was pipetted into each well and incubation continued for 1–4 h. Finally, the absorbance at 490 nm was measured using an EnVision multifunctional modular reader (PerkinElmer). The IC50 value was determined using Dotmatics software.

DU-145 (prostate cancer) = experiment: MTS cytotoxicity assay, 72 h, DU-145; type: cell-based, human
Protocol: as §1, §2

[2] = test system: K562 (chronic myelogenous leukemia); experiment: MTS cytotoxicity assay, 72 h, K562; type: cell-based; details: Homo sapiens
Protocol: as §1, §2

K562-TAX = experiment: MTS cytotoxicity assay, 72 h, K562-TAX; type: cell-based
Protocol: as §1, §2

HCT 116 = experiment: MTS cytotoxicity assay, 72 h, HCT 116; type: cell-based; details: Homo sapiens, HCT-116, 72 h
Protocol: as §1, §2

HCT116 p53–/– = experiment: MTS cytotoxicity assay, 72 h, HCT116 p53–/–; type: cell-based; details: Homo sapiens, HCT-116, 72 h
Protocol: as §1, §2

U2OS = experiment: MTS cytotoxicity assay, 72 h, U2OS; type: cell-based; details: Homo sapiens
Protocol: as §1, §2

CCRF-CEM = experiment: MTS cytotoxicity assay, 72 h, CCRF-CEM; type: cell-based; details: for IC50: Homo sapiens, CCRF-CEM, 72 h, MTS
Protocol: as §1, §2

CEM-DNR = experiment: MTS cytotoxicity assay, 72 h, CEM-DNR; type: cell-based; details: Homo sapiens
Protocol: as §1, with “1).[27] […]” for “1).[27]”

[3] = test system: BJ human skin fibroblasts; experiment: MTS cytotoxicity assay, 72 h, BJ fibroblasts; type: cell-based; details: normal fibroblasts; for IC50: Homo sapiens, Skin fibroblast
Protocol: as §1, §2

MRC-5 lung fibroblasts = experiment: MTS cytotoxicity assay, 72 h, MRC-5 fibroblasts; type: cell-based, human; details: normal fibroblasts; for IC50: Homo sapiens, MRC5, 72 h
Protocol: as §1, §2

[4] = Homo sapiens, DU-145, 72 h, full Table S1
[5] = CCRF-CEM vs average of BJ and MRC-5, full Table S1
[6] = Homo sapiens, DU-145, 72 h, Table 1
[7] = IC50 of CCRF-CEM line vs average of both fibroblasts (BJ and MRC-5), Table 1

| Compound | IC50 ([1]; full Table S1) | IC50 (DU-145 (prostate cancer); [4]) | IC50 (K562-TAX; full Table S1) | IC50 (HCT 116; full Table S1) | IC50 (HCT116 p53–/–; full Table S1) | IC50 (U2OS; full Table S1) | IC50 (CCRF-CEM; full Table S1) | IC50 (CEM-DNR; full Table S1) | IC50 ([1]; Table 1) | IC50 (DU-145 (prostate cancer); [6]) | IC50 ([2]; Table 1) | IC50 (K562-TAX; Table 1) | IC50 (HCT 116; Table 1) | IC50 (HCT116 p53–/–; Table 1) | IC50 (U2OS; Table 1) | IC50 (CCRF-CEM; Table 1) | SI (selectivity index) (CCRF-CEM; [7]) | IC50 (CEM-DNR; Table 1) | IC50 ([3]; Table 1) | IC50 (MRC-5 lung fibroblasts; Table 1) | also measured |
| --- | --- | --- | --- | --- | --- | --- | --- | --- | --- | --- | --- | --- | --- | --- | --- | --- | --- | --- | --- | --- | --- |
| C=C(C)[C@@H]1CC[C@]2(C(=O)OCc3ccccc3)CC[C@]3(C)C(CCC4[C@@]5(C)C=C(c6cccnc6)C(=O)C(C)(C)C5CC[C@]43C)C12 (stereo partly shown) [Compound 10g, Benzyl 2-(3-Pyridinyl)-3-oxolupa-1,20(29)-dien-28-oate] | > 50 µM | > 50 µM | > 50 µM | > 50 µM | > 50 µM | > 50 µM | > 50 µM | > 50 µM | – | – | – | – | – | – | – | – | – | – | – | – | IC50 ([2]; full Table S1): > 50 µM; SI (selectivity index) (CCRF-CEM; [5]): > 1.0; IC50 ([3]; full Table S1): > 50 µM; IC50 (MRC-5 lung fibroblasts; full Table S1): > 50 µM |
| CN(C)c1ccccc1CN1CCCN(Cc2ccccc2N(C)C)C1c1ccncc1 [GANT-61, reference compound] | – | – | – | – | – | – | – | – | – | – | – | – | – | – | – | – | – | – | – | – | IC50 (DU-145 (prostate cancer); Table 1): > 50 µM |
| CC1(C)C(=O)C(c2cccnc2)=C[C@@]2(C)C1CC[C@]1(C)C2CCC2C3[C@H]4OC[C@@]3(CCC4(C)C)CC[C@]21C (stereo partly drawn) [Compound 4g, 2-(Pyridin-3-yl)-19β,28-epoxyolean-1-en-3-one] | – | 43.3 µM | – | – | – | – | 25.4 µM | 15.5 µM | > 50 µM | 43 µM | > 50 µM | 19 µM | > 50 µM | > 50 µM | > 50 µM | 25 µM | >2.0 | 16 µM | > 50 µM | > 50 µM | – |
| C=C(C)[C@@H]1CC[C@]2(C(=O)O)CC[C@]3(C)C(CCC4[C@@]5(C)C=C(c6cncc7ccccc67)C(=O)C(C)(C)C5CC[C@]43C)C12 (stereo partly shown) [Compound 11l, 2-(Isoquinoline)-3-oxolupa-1,20(29)-dien-28-oic acid] | 13.9 µM | – | – | 18.5 µM | 30.8 µM | 24.8 µM | – | – | 14 µM | 8.3 µM | > 50 µM | 8.7 µM | 19 µM | 31 µM | 25 µM | 7.2 µM | >7.0 | 17 µM | > 50 µM | > 50 µM | IC50 BJ ([3]; Table 1): below the detection limit; IC50 MRC-5 (MRC-5 lung fibroblasts; Table 1): below the detection limit |
| CC1(C)C(=O)C(c2cncc3ccccc23)=C[C@@]2(C)C1CC[C@]1(C)C2CCC2C3[C@H]4OC[C@@]3(CCC4(C)C)CC[C@]21C (stereo partly drawn) [Compound 4l, 2-(Isoquinolin-4-yl)-19β,28-epoxyolean-1-en-3-one] | – | 32.1 µM | – | – | – | – | – | – | > 50 µM | 32 µM | > 50 µM | > 50 µM | > 50 µM | > 50 µM | > 50 µM | > 50 µM | – | > 50 µM | > 50 µM | > 50 µM | – |
| C=C(C)[C@@H]1CC[C@]2(C(=O)O)CC[C@]3(C)C(CCC4[C@@]5(C)C=C(c6ccc7cn[nH]c7c6)C(=O)C(C)(C)C5CC[C@]43C)C12 (stereo partly shown) [Compound 11n, 2-(Indazol-6-yl)-3-oxolupa-1,20(29)-dien-28-oic acid] | 15.1 µM | – | 12.1 µM | 14.9 µM | 16.8 µM | 20.5 µM | – | 21.9 µM | 15 µM | 8.3 µM | 22 µM | 12 µM | 15 µM | 17 µM | 21 µM | 4.9 µM | 6.3 | 22 µM | 35 µM | 27 µM | IC50 ([2]; full Table S1): 22.3 µM; IC50 ([3]; full Table S1): 35.1 µM; IC50 (MRC-5 lung fibroblasts; full Table S1): 26.5 µM |
| C=C(C)[C@@H]1CC[C@]2(C(=O)OCc3ccccc3)CC[C@]3(C)C(CCC4[C@@]5(C)C=C(c6cc7ccccc7s6)C(=O)C(C)(C)C5CC[C@]43C)C12 (stereo partly shown) [Compound 10k, Benzyl 2-(Benzo[b]thien-2-yl)-3-oxolupa-1,20(29)-dien-28-oate] | > 50 µM | > 50 µM | > 50 µM | > 50 µM | > 50 µM | > 50 µM | > 50 µM | > 50 µM | – | – | – | – | – | – | – | – | – | – | – | – | IC50 ([2]; full Table S1): > 50 µM; SI (selectivity index) (CCRF-CEM; [5]): > 1.0; IC50 ([3]; full Table S1): > 50 µM; IC50 (MRC-5 lung fibroblasts; full Table S1): > 50 µM |
| C=C(C)[C@@H]1CC[C@]2(C(=O)O)CC[C@]3(C)[C@H](CC[C@@H]4[C@@]5(C)CC[C@H](O)C(C)(C)[C@@H]5CC[C@]43C)[C@@H]12 [Betulinic acid 5, betulinic acid, reference compound] | – | – | 14.1 µM | – | – | – | – | – | 9.4 µM | 9.6 µM | 4.3 µM | 14 µM | 16 µM | 16 µM | 21 µM | 8.1 µM | 3.2 | 14 µM | 24 µM | 28 µM | – |
| CC1(C)C(=O)C(c2ccc3[nH]ccc3c2)=C[C@@]2(C)C1CC[C@]1(C)C2CCC2C3[C@H]4OC[C@@]3(CCC4(C)C)CC[C@]21C (stereo partly drawn) [Compound 4m, 2-(Indol-5-yl)-19β,28-epoxyolean-1-en-3-one] | – | 25.8 µM | – | – | – | – | 26.1 µM | – | > 50 µM | 26 µM | > 50 µM | > 50 µM | > 50 µM | > 50 µM | > 50 µM | 26 µM | >1.9 | > 50 µM | > 50 µM | > 50 µM | – |
| CC1(C)C(=O)C(c2cncnc2)=C[C@@]2(C)C1CC[C@]1(C)C2CCC2C3[C@H]4OC[C@@]3(CCC4(C)C)CC[C@]21C (stereo partly drawn) [Compound 4i, 2-(Pyrimidin-5-yl)-19β,28-epoxyolean-1-en-3-one] | – | – | – | – | – | – | – | 27.4 µM | > 50 µM | > 50 µM | > 50 µM | > 50 µM | > 50 µM | > 50 µM | > 50 µM | > 50 µM | – | 27 µM | > 50 µM | > 50 µM | – |
| C=C(C)[C@@H]1CC[C@]2(C(=O)OCc3ccccc3)CC[C@]3(C)C(CCC4[C@@]5(C)C=C(c6ccsc6)C(=O)C(C)(C)C5CC[C@]43C)C12 (stereo partly shown) [Compound 10d, Benzyl 2-(3-Thiophenyl)-3-oxolupa-1,20(29)-dien-28-oate] | > 50 µM | > 50 µM | > 50 µM | > 50 µM | > 50 µM | > 50 µM | > 50 µM | > 50 µM | – | – | – | – | – | – | – | – | – | – | – | – | IC50 ([2]; full Table S1): > 50 µM; SI (selectivity index) (CCRF-CEM; [5]): > 1.0; IC50 ([3]; full Table S1): > 50 µM; IC50 (MRC-5 lung fibroblasts; full Table S1): > 50 µM |
